Source: ChEMBL document CHEMBL1129909, “Potent non-peptidic dual inhibitors of endothelin-converting enzyme and neutral endopeptidase 24.11” (Bioorg Med Chem Lett, 1997)

How the values were obtained:
[1] = target: T1, Endothelin-converting enzyme 1 (Homo sapiens) (UniProt P42892); test: In vitro inhibition to recombinant human endothelin converting enzyme; parameters: concentration or dose not given beside the values; settings: concentration not given here
T1 sequence (whole entry): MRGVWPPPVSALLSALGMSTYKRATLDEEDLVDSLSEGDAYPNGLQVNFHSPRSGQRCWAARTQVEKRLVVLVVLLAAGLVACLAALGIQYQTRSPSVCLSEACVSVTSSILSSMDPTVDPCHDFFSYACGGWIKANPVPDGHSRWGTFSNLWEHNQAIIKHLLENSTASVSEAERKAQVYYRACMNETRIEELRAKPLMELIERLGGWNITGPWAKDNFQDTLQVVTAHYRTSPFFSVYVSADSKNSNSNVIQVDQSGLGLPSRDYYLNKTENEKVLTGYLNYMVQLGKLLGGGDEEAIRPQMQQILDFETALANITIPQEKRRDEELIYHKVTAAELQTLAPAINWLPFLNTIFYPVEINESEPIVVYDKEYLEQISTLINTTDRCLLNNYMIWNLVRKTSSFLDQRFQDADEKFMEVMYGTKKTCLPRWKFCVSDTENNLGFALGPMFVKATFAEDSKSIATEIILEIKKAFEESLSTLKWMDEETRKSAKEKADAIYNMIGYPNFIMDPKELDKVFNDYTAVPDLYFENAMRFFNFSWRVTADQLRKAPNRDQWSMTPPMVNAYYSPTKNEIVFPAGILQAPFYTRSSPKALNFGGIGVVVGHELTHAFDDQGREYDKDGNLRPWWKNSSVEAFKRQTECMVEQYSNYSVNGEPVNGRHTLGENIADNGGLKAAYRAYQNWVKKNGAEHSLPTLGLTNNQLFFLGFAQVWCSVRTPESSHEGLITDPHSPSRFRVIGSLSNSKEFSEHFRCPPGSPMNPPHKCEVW

[2] = target: T2, Endothelin-converting enzyme 1 (Homo sapiens, UniProt P42892); test: In vitro inhibition against recombinant human Endothelin converting enzyme 1 activity
T2 sequence (P42892 whole entry): T1 sequence (whole entry)

Neprilysin = Neprilysin (Homo sapiens, UniProt P08473)
Chain of Neprilysin (P08473 whole entry): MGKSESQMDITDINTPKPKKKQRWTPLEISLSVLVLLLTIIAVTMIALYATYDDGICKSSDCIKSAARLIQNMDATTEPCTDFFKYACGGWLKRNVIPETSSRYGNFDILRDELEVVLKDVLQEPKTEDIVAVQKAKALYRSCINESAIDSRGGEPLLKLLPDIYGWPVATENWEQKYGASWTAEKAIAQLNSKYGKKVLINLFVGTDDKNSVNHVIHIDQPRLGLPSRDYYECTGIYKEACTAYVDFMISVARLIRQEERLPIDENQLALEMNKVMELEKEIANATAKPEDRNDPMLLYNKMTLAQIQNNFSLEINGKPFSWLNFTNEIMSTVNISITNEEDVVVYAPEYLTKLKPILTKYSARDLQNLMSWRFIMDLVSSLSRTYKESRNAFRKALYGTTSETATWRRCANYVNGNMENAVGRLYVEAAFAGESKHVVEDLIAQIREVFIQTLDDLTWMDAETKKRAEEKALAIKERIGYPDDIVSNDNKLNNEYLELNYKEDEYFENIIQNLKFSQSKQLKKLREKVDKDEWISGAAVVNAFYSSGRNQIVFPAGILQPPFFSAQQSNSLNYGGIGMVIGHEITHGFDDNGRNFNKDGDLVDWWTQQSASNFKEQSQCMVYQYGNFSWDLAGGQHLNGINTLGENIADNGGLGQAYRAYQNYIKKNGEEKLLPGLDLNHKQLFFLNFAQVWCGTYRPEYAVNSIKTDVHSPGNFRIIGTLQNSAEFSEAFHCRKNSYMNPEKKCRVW
Description: Inhibition of neutral endopeptidase 24.11(NEP)

Row | SMILES | inhibition [1] | IC50 [2] | IC50 (Neprilysin)
1 | O=P(O)(O)C(Cc1ccc2c(c1)OCO2)N[C@H](Cc1ccc(-c2ccccc2)cc1)c1nnn[nH]1 (some centres not stated) | 76% | 390 nM | 
2 | O=P(O)(O)C(Cc1cccc2cccnc12)N[C@H](Cc1ccc(-c2ccccc2)cc1)c1nnn[nH]1 (some centres not stated) | 22% | > 1000 nM | 
3 | O=P(O)(O)CN[C@@H](Cc1c[nH]c2ccccc12)c1nnn[nH]1 | 10% |  | 
4 | O=P(O)(O)CN[C@@H](Cc1ccc(-c2ccccc2)cc1)c1nc[nH]n1 | 0% |  | 
5 | O=P(O)(O)C(Cc1cccc2c1OCO2)N[C@H](Cc1ccc(-c2ccccc2)cc1)c1nnn[nH]1 (some centres not stated) | 50% | 1100 nM | 
6 | O=P(O)(O)CN[C@@H](Cc1ccccc1)c1nnn[nH]1 | 0% |  | 
7 | O=P(O)(CCc1ccc2ccccc2c1)N[C@@H](Cc1ccc(-c2ccccc2)cc1)c1nnn[nH]1 | 0% |  | 
8 | O=P(O)(O)C(Cc1cccc2cccnc12)N[C@@H](Cc1ccc(-c2ccccc2)cc1)c1nnn[nH]1 (some centres not stated) | 93% | 23 nM | 
9 | O=P(O)(O)C(Cc1cccc2ccccc12)N[C@@H](Cc1ccc(-c2ccccc2)cc1)c1nnn[nH]1 (some centres not stated) | 95% | 17 nM | 
10 | O=P(O)(O)CN[C@@H](CCc1ccccc1)c1nnn[nH]1 | 0% |  | 
11 | O=P(O)(O)C(Cc1ccccc1)N[C@@H](Cc1ccc(-c2ccccc2)cc1)c1nnn[nH]1 (some centres not stated) | 83% | 280 nM | 
12 | O=P(O)(O)C(Cc1cccc2c1OCO2)N[C@@H](Cc1ccc(-c2ccccc2)cc1)c1nnn[nH]1 (some centres not stated) | 87% | 110 nM | 
13 | O=P(O)(O)C(Cc1ccc2c(c1)OCO2)N[C@@H](Cc1ccc(-c2ccccc2)cc1)c1nnn[nH]1 (some centres not stated) | 85% | 93 nM | 
14 | CC(C)C[C@H](NP(=O)(O)O[C@@H]1O[C@@H](C)[C@H](O)[C@@H](O)[C@H]1O)C(=O)N[C@@H](Cc1c[nH]c2ccccc12)C(=O)O [PHOSPHORAMIDON] | 47% |  | 30 nM
15 | O=C(O)c1n[nH]c([C@H](Cc2ccc(-c3ccccc3)cc2)NCP(=O)(O)O)n1 | 14% |  | 
16 | O=P(O)(O)C(Cc1ccc2ccccc2c1)N[C@@H](Cc1ccc(-c2ccccc2)cc1)c1nnn[nH]1 (some centres not stated) [CGS-314447] | 91% | 45 nM | 

Row | SMILES | inhibition [1] | IC50 [2] | IC50 (Neprilysin)
17 | O=P(O)(O)C(Cc1ccc2ccccc2c1)N[C@H](Cc1ccc(-c2ccccc2)cc1)c1nnn[nH]1 (some centres not stated) | 47% | 1400 nM | 
18 | O=P(O)(O)CN[C@@H](Cc1ccc(-c2ccccc2)cc1)c1nn[nH]n1 | 79% |  | 
19 | O=P(O)(O)CN[C@@H](Cc1ccc(-c2ccccc2)cc1)c1nnn[nH]1 |  | 410 nM | 
20 | O=P(O)(O)CN[C@H](Cc1ccc(-c2ccccc2)cc1)c1nnn[nH]1 | 0% |  | 
21 | O=P(O)(O)C(Cc1ccccc1)N[C@H](Cc1ccc(-c2ccccc2)cc1)c1nnn[nH]1 (some centres not stated) | 18% | 5000 nM | 
22 | O=C(O)C[C@H](Cc1ccc(-c2ccccc2)cc1)NCP(=O)(O)O | 0% |  | 
23 | O=P(O)(O)C(N[C@@H](Cc1ccc(-c2ccccc2)cc1)c1nnn[nH]1)c1cccc2ccccc12 (some centres not stated) | 14% | > 1000 nM | 
24 | O=C(O)CNC(=O)C(CS)Cc1ccccc1 (configuration not stated) [THIORPHAN] | 9% | > 100000 nM | 
25 | O=P(O)(O)C(Cc1cccc2ccccc12)N[C@H](Cc1ccc(-c2ccccc2)cc1)c1nnn[nH]1 (some centres not stated) | 85% | 160 nM | 
26 | O=P(O)(O)C(N[C@H](Cc1ccc(-c2ccccc2)cc1)c1nnn[nH]1)c1cccc2ccccc12 (some centres not stated) | 49% | > 1000 nM | 
27 | O=P(O)(O)CC(Cc1ccc(-c2ccccc2)cc1)c1nnn[nH]1 (configuration not stated) | 8% |  | 
28 | O=C(O)[C@H](Cc1ccc(-c2ccccc2)cc1)NCP(=O)(O)O | 20% |  | 
29 | O=P(O)(O)CN[C@@H](Cc1ccc2ccccc2c1)c1nnn[nH]1 | 0% |  | 
30 | O=P(O)(O)CCC(Cc1ccc(-c2ccccc2)cc1)c1nnn[nH]1 (configuration not stated) | 0% |  | 
31 | SCC(Cc1ccc(-c2ccccc2)cc1)c1nnn[nH]1 (configuration not stated) | 26% |  | 
